In patent US20180289692A1, “TLR MODULATORS AND METHODS OF USE” (CELGENE CORPORATION, priority 2015, published 2018):
Oligonucleotides are written 5' to 3', each unit as a sugar letter and its base; * is a phosphorothioate linkage, no mark a phosphodiester; rarer units and linkages stand in square brackets, end groups in braces. Plain capitals give the bases only. d = 2'-deoxy (DNA)

Assays:
NOD2 = target: T1, NOD2 (Homo sapiens, UniProt Q9HC29); settings: HEK-Blue NOD2 cells; cited from earlier work
T1 construct: host or cells: HEK-Blue NOD2 cells
T1 sequence (Q9HC29 whole entry, species assumed): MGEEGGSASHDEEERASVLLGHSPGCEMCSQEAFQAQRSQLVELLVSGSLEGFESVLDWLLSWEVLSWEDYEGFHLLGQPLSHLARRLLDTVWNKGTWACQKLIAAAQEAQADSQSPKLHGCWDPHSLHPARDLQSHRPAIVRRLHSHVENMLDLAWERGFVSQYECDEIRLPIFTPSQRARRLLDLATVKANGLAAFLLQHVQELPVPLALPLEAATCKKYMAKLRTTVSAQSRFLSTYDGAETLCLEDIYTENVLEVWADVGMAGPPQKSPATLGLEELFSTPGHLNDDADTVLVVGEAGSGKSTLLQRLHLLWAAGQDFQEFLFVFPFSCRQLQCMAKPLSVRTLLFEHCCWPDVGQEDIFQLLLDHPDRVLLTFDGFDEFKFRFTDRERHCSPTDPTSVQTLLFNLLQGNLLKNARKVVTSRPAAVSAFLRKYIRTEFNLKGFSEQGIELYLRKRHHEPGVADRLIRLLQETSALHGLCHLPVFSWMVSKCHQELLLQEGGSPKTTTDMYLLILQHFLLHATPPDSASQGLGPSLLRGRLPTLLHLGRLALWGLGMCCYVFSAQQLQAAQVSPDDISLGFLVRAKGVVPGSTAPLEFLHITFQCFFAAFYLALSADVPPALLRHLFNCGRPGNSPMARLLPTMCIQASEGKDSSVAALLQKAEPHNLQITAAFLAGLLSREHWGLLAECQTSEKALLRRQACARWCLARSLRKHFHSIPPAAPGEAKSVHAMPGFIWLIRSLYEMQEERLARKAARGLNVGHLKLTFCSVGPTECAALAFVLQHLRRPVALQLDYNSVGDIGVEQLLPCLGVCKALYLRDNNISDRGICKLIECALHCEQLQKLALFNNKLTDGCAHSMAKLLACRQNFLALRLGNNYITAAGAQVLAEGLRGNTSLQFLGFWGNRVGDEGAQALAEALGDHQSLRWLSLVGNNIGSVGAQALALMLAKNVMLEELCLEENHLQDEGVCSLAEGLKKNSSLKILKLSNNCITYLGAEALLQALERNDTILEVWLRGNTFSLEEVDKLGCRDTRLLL

human PBMCs = assay: IL-1β secretion from NOD2 ligand L18-MDP stimulated human PBMCs; type: cell-based; settings: L-18 MDP 100 ng/ml, FIG. 19
Method: PBMCs were isolated from 3 donors of buffy coat (Blood Center of NY) using density gradient centrifugation. The PBMCs were resuspended in RPMI-1640 media supplemented with 10% FBS, 2 mM L-glutamine and 100 units/ml Penicillin and 100 μg/ml Streptomycin. The cells were plated in 96-well flat bottom plates at 250,000 cells/well. […] After 1 hr, the cells were stimulated with and without L-18 MDP at 100 ng/ml (Invivogen, San Diego, Calif.) or 1 ng/ml LPS (Sigma, St. Louis, Mo.). The cells were then incubated for 24 hrs at 37° C., 5% CO2. All compounds or ODNs were resuspended in endotoxin-free water. After 24 hrs, the supernatant was collected and analyzed for cytokine production. The supernatants were analyzed in duplicate for cytokine production in a magnetic multi-plex bead format using the MagPix instrument (Millipore, Billerica, Mass.). IL-1β was tested using a bead-based human cytokine/chemokine kit (Millipore, Cat# HCYTOMAG-60K-09). The manufacturer's procedures were followed accordingly. Data analysis was performed using Milliplex Analyst Software (Millipore).

[1] = system: CD19+ B-cells in human PBMCs; assay: B-cell activation in human PBMCs, CD86 expression on CD19+ B-cells by FACS; type: cell-based; settings: 24 h, FIG. 7
Method: PBMC were incubated on ice in the presence of Fc-Block (BD Pharmingen) for 20 minutes, washed, and incubated with antibodies specific for surface molecules or isotype-matched control mAbs. APC-Cy7 labeled anti-human CD19 mAb and PE-labeled anti-human CD86 mAb were purchased from BioLegend. The stained cells were then subjected to FACS (FACSCanto, BD Biosciences) using the FACSDiva software. FACS analysis was performed using FlowJo software. Single, viable cells in the CD19+ B-cells gates were used for analysis. The flow cytometric results are expressed as the percentage of CD86-expressing cells (FIG. 7A) as the mean fluorescence intensity (MFI) of CD86-expressing cells in each gate (FIG. 7B).

Molecule	more efficient NF-κB activator than MDP (NOD2)	stimulation of IL-1β secretion from human PBMCs (human PBMCs)	B-cell activation (CD86 upregulation) [1]
CCCCCCCCCCCCCCCCCC(=O)OCC1OC(O)C(NC(C)=O)C(OC(C)C(=O)NC(C)C(=O)NC(CCC(=O)O)C(N)=O)C1O [L-18 MDP]	10 fold	about 51 fold	
ODN2137: 5′-TGCTGCTTTTGTGCTTTTGTGCTT-3′, fully PS, GC-containing (DNA dT*dG*dC*dT*dG*dC*dT*dT*dT*dT*dG*dT*dG*dC*dT*dT*dT*dT*dG*dT*dG*dC*dT*dT)			Stronger
